# Measured values taken from patent EP0520336A2, “Aldehyde derivatives and their use as calpain inhibitors” (FUJIREBIO Inc., priority 1991, dated 1992).
# Where a SMILES comes first, the peptide text is derived from it. [ ]: non-standard residue; d: D form. The star is where a group is joined. ξ: configuration not given here. Cbz = O=C(OCc1ccccc1)*; ξAze = O=C(O)C1CCN1
# System: Calpain
# Experiment: Measurement of calpain inhibiting effect (casein hydrolysis, IC50 by Probit)
# Type: biochemical, Japanese white rabbit
# Conditions: 30 °C for 30 minutes, pH = 7.5, IC50 by method of Probit
# Method: Test Example 1 Measurement of Calpain Inhibiting Effect
# Calpain was separated from a skeletal muscle of a Japanese white rabbit and partially purified according to the method of Tsuji and Imahori as described in J.Biochem. 90, 233-240 (1981), whereby the calpain for use in a test for investigating the calpain inhibiting effect (i.e., the inhibitory effect on calpain activity) of the aldehyde compounds according to the present invention was prepared.
# The calpain inhibiting effect was measured in accordance with the method of Yoshimura et al. as described in J. Biol. Chem. 258, 8883-8889 (1983).
# Each assay mixture was prepared by mixing 0.05 ml of a 4% casein solution, 0.05 ml of a 50 mM cysteine solution, 0.05 ml of a calpain solution, 0.025 ml of purified water, 0.025 ml of a 10% dimethyl sulfoxide solution containing each compound shown in Table 15 and 0.25 ml of a 200 mM imidazole hydrochloric acid buffer solution (pH = 7.5).
# The thus prepared assay mixture was preincubated at 30 ° C for 3 minutes. The reaction was started by the addition of 0.05 ml of a 50 mM calcium chloride solution to the above mixture. After the incubation at 30 °C for 30 minutes, the reaction was terminated by the addition of 0.5 ml of 5% trichloroacetic acid.
# The amount of a trichloroacetic-acid-soluble protein produced by hydrolysis of casein by calpain was measured by the spectrophotometric analysis in accordance with the method of Ross and Schatz as described in Anal. Biochem. 54, 304-306 (1973), and the absorbance (a) of each sample was measured.
# The absorbance (b) of a blank sample which was treated similarly without any of the aldehyde compounds of the present invention, dissolved in a 10% dimethyl sulfoxide solution, was measured.
# The inhibition of calpain activity was calculated in accordance with the formula [(b-a)/b] X 100, and the amount of each aldehyde compound necessary to inhibit calpain activity by 50% [IC50] was calculated according to the method of Probit.
row,SMILES,IC50 [nM]
1,"O=C[C@H](Cc1ccccc1)NC(=O)C1CCN(C(=O)/C=C/c2cccc(Cl)c2)CC1 [Compound No. 1-43, 1-(3-chlorocinnamoyl)piperidine-4-carboxylic acid-(1S)-(1-formyl-2-phenyl)ethylamide]",560
2,CC(C)C[C@H](OC(=O)Nc1cccc2ccccc12)C(=O)N[C@H](C=O)CCSCc1ccccc1F [Compound No. 2-18],580
3,CSCC[C@@H](C=O)NC(=O)[C@H](CC(C)C)OC(=O)Nc1ccccc1 [Compound No. 2-3],1600
4,CSCC[C@@H](C=O)NC(=O)[C@@H](OC(=O)Nc1ccccc1)C(C)C [Compound No. 2-21],2000
5,"O=C[C@H](Cc1ccccc1F)NC(=O)C1CCN(C(=O)c2ccc3ccccc3c2)CC1 [Compound No. 1-55, 1-(2-naphthoyl)piperidine-4-carboxylic acid-(1S)-[1-formyl-2-(2-fluorophenyl)]ethylamide]",630
6,"CSCC[C@@H](C=O)NC(=O)C1CCN1C(=O)OCc1ccccc1 (stereo partly drawn) [Compound No. 1-1, (2R,2S)-1-benzyloxycarbonyl-azetidine-2-carboxylic acid-(1 S)-(1-formyl-3-methylthio)-propylamide] (Cbz-[ξAze]-Met-aldehyde)",6600
7,CC(C)C[C@H](OC(=O)Nc1cccc2ccccc12)C(=O)N[C@H](C=O)Cc1ccccc1 [Compound No. 2-20],4400
8,CSCC[C@@H](C=O)NC(=O)[C@@H](OC(=O)Nc1cccc2ccccc12)C(C)C [Compound No. 2-22],3300
9,CC(C)C[C@H](OC(=O)Nc1ccccc1)C(=O)N[C@H](C=O)CCSCc1ccccc1F [Compound No. 2-17],3600

# The remaining lines, values ahead:
row,IC50 [nM],SMILES
1,1900,"O=C[C@H](Cc1ccccc1)NC(=O)C1CCN(C(=O)C(c2ccccc2)c2ccccc2)CC1 [1-38, 1-(diphenylacetyl)piperidine-4-carboxylic acid-(1S)-(1-formyl-2-phenyl)ethylamide]"
2,1230,CC(C)C[C@H](OC(=O)Nc1cccc2ccccc12)C(=O)N[C@H](C=O)CCc1ccccc1 [2-13]
3,2000,"O=C[C@H](Cc1ccccc1)NC(=O)C1CCN(C(=O)c2cccs2)CC1 [1-32, 1-(2-thienylcarbonyl)piperidine-4-carboxylic acid-(1S)-(1-formyl-2-phenyl)ethylamide]"
4,890,"O=C[C@H](Cc1ccccc1)NC(=O)C1CCN(C(=O)CCCc2ccccc2)CC1 [1-26, 1-(4-phenylbutyryl)piperidine-4-carboxylic acid-(1S)-(1-formyl-2-phenyl)ethylamide]"
5,1100,"Cc1ccc(S(=O)(=O)N2CCC(C(=O)N[C@H](C=O)Cc3ccccc3)CC2)cc1 [1-30, 1-(4-methylphenylsulfonyl)piperidine-4-carboxylic acid-(1S)-(1-formyl-2-phenyl)ethylamide]"
6,3000,"O=C[C@H](Cc1ccccc1)NC(=O)C1CCN(C(=O)OCc2ccccc2)CC1 [1-7, 1-benzyloxycarbonylpiperidine-4-carboxylic acid-(1S)-(1-formyl-2-phenyl)ethylamide]"
7,940,"O=C[C@H](Cc1ccccc1)NC(=O)C1CCN(C(=O)Nc2ccccc2)CC1 [1-41, 1-(N-phenylcarbamoyl)piperidine-4-carboxylic acid-(1S)-(1-formyl-2-phenyl)ethylamide]"
8,1900,CSCC[C@@H](C=O)NC(=O)[C@H](CC(C)C)OC(=O)Nc1cccc2ccccc12 [2-14]
9,220,"O=C[C@H](Cc1ccccc1)NC(=O)C1CCN(C(=O)c2ccc3ccccc3c2)CC1 [1-28, 1-(2-naphthoyl)piperidine-4-carboxylic acid-(1S)-(1-formyl-2-phenyl)ethylamide]"
10,170,"O=C[C@H](Cc1ccccc1)NC(=O)C1CCN(S(=O)(=O)c2ccc3ccccc3c2)CC1 [1-34, 1-(2-naphthylsulfonyl)piperidine-4-carboxylic acid-(1S)-(1-formyl-2-phenyl)ethylamide]"
11,2300,"O=C[C@H](Cc1ccccc1)NC(=O)C1CCN(C(=O)C2c3ccccc3-c3ccccc32)CC1 [1-39, 1-(9-fluorenylcarbonyl)piperidine-4-carboxylic acid-(1S)-(1-formyl-2-phenyl)ethylamide]"
